Test results: US20040192777A1, “Novel anticancer diterpene compounds, process and uses thereof” (COUNCIL OF SCIENTIFIC AND INDUSTRIAL, priority 2003, published 2004)

How the values were obtained:
Type in all cases: cell-based
[1] = system: human lung cancer cells (A-549); test: In vitro cytotoxicity (SRB) against A-549; conditions: A-549 Lung; for Growth inhibition, %: 48 h
Description: (§1) The human cancer cell lines were obtained either from National center for cell science, Pune, India or National Cancer Institute, Frederick, MD, U.S.A. Cells were grown in tissue culture flasks in complete growth medium (RPMI-1640 medium with 2 mM glutamine, 100 μg/ml streptomycin, pH 7.4, sterilized by filtration and supplemented with 10% sterilized fetal calf serum and 100 units/ml penicillin before use) at 37° C. in an atmosphere of 5% CO2 and 90% relative humidity in a carbon dioxide incubator. The cells at subconfluent stage were harvested from the flask by treatment with trypsin (0.05% trypsin in PBS containing 0.02% EDTA) and suspended in complete growth medium. Cells with cell viability of more than 97% by trypan blue exclusion technique were used for determination of cytotoxicity.
(§2) Compound 1 was dissolved in DMSO (dimethyl sulphoxide) to obtain a stock solution of 20 mg/ml. The stock solution was serially diluted with complete growth medium containing 50 μg/ml of gentamycin to obtain three working test solutions of 200, 60 and 20 μg/ml.
(§3) The suspension of human cancer cell lines of required cell density in complete growth medium was prepared and cell suspension of each cell line was placed in 96-well tissue culture plate (100 μl per well) for control, Compound 1 and positive control(s). The blank wells for each cell line and concentration of test material were also included that contained equivalent amount of complete growth medium only. The plates were incubated at 37° C. in an atmosphere of 5% CO2 and 90% relative humidity in a carbon dioxide incubator. The experiment was carried out in triplicate.
(§4) After 24-hours of incubation, the working solutions of Compound 1 of different concentrations (100 μl) were added in the experimental wells and blanks whereas positive controls of required concentrations (100 μl) were added into wells for positive controls. The equivalent amount of complete growth medium was added to control set.
(§5) The plates were further incubated for 48-hours (at 37° C. in an atmosphere of 5% CO2 and 90% relative humidity in a carbon dioxide incubator) after addition of test material etc. and then the cell growth was stopped by gently layering of 50 μl of TCA (50% trichloroacetic acid) on top of the medium in all the wells. The plates were incubated at 4° C. for one hour to fix the cells attached to the bottom of the wells. Liquids of all the wells were gently pipetted out and discarded. The plates were washed five times with distilled water to remove TCA, growth medium, low molecular weight metabolites, serum proteins etc. Plates were air dried.
(§6) Cell growth was measured by staining with sulforhodamine B dye (SRB). The SRB solution (100 μl of 0.4% SRB in 1% acetic acid) was added to each well and the plates were incubated at room temperature for 30 minutes. The unbound SRB was quickly removed by washing the wells five times with 1% acetic acid and plates were air dried. Tris-buffer (100 μl of 0.01M, pH 10.4) was added to all the wells and plates were gently stirred for 5 minutes on a mechanical stirrer. The optical density was recorded on ELISA reader at 540 nm.
(§7) The cell growth in presence of test material was determined by subtracting mean OD value of respective blank from the mean OD value of experimental set. Like wise, cell growth in absence of test material (control set) and in presence of positive control was also determined. The per cent cell growth in presence of test material was determined considering the cell growth in absence of test material as 100% and in turn per cent inhibition was calculated.
(§8) The human cancer cell lines were grown, harvested and cytotoxicity was determined exactly as mentioned in Example 3 except that the test material used was Compound 2 that was dissolved in DMSO and three working test solutions were prepared of the same concentrations as in Example 3.

[2] = system: human liver cancer cells (Hep-2); test: In vitro cytotoxicity (SRB) against Hep-2; conditions: Hep-2 Liver
Description: The human cancer cell lines were obtained either from National center for cell science, Pune, India or National Cancer Institute, Frederick, MD, U.S.A. […] Cells with cell viability of more than 97% by trypan blue exclusion technique were used for determination of cytotoxicity. Compound 1 was dissolved in DMSO (dimethyl sulphoxide) to obtain a stock solution of 20 mg/ml. […] The blank wells for each cell line and concentration of test material were also included that contained equivalent amount of complete growth medium only. The plates were incubated at 37° C. in an atmosphere of 5% CO2 and 90% relative humidity in a carbon dioxide incubator. The experiment was carried out in triplicate. […] The equivalent amount of complete growth medium was added to control set. […] The plates were incubated at 4° C. for one hour to fix the cells attached to the bottom of the wells. Liquids of all the wells were gently pipetted out and discarded. The plates were washed five times with distilled water to remove TCA, growth medium, low molecular weight metabolites, serum proteins etc. Plates were air dried. Cell growth was measured by staining with sulforhodamine B dye (SRB). […] The optical density was recorded on ELISA reader at 540 nm. The cell growth in presence of test material was determined by subtracting mean OD value of respective blank from the mean OD value of experimental set. Like wise, cell growth in absence of test material (control set) and in presence of positive control was also determined. […] The human cancer cell lines were grown, harvested and cytotoxicity was determined exactly as mentioned in Example 3 except that the test material used was Compound 2 that was dissolved in DMSO and three working test solutions were prepared of the same concentrations as in Example 3.

[3] = system: human ovary cancer cells (OVCAR-5); test: In vitro cytotoxicity (SRB) against OVCAR-5; conditions: OVCAR-5 Ovary; for Growth inhibition, %: 48 h
Description: as §1, §2, §3, §4, §5, §6, §7, §8

[4] = system: human CNS cancer cells (SK-N-MC); test: In vitro cytotoxicity (SRB) against SK-N-MC; conditions: 48 h
Description: as §1, §2, §3, §4, §5, §6, §7, §8

[5] = system: human colon cancer cells (HT-29); test: In vitro cytotoxicity (SRB) against HT-29; conditions: HT-29 Colon
Description: as §1, §2, §3, §4, §5, §6, §7, §8

[6] = system: human prostate cancer cell line PC-3; test: In vitro cytotoxicity (SRB) against PC-3; conditions: PC-3 Prostate
Description: as §1, §2, §3, §4, §5, §6, §7, §8

[7] = system: human cervix cancer cell line (SiHa); test: In vitro cytotoxicity (SRB) against SiHa
Description: as §1, §2, §3, §4, §5, §6, §7, §8

[8] = system: human lung cancer cell line HOP-62; test: In vitro cytotoxicity (SRB) against HOP-62; conditions: HOP-62 Lung; for Growth inhibition, %: 48 h
Description: as §1, §2, §3, §4, §5, §6, §7, §8

human cancer cell lines = test: In vitro cytotoxicity (SRB), span over the cell line panel; conditions: at 100 μg/ml, all human cancer cell lines studied except HOP-62
Description: as §1, with “cytotoxicity. […]” for “cytotoxicity.”
Cell growth was measured by staining with sulforhodamine B dye (SRB). […] The optical density was recorded on ELISA reader at 540 nm.
as §7, with “calculated. […]” for “calculated.”

[9] = Homo sapiens, 1 × 10^−4M, positive control, read-out: Growth inhibition, %
[10] = Homo sapiens, 1 × 10^−5M, positive control, read-out: Growth inhibition, %

| SMILES | Growth inhibition, % ([1]; 10 μg/ml) [%] | Growth inhibition, % ([1]; 30 μg/ml) [%] | Growth inhibition, % ([1]; 100 μg/ml) [%] | Growth inhibition, % ([2]; 10 μg/ml, 48 h) [%] | Growth inhibition, % ([2]; 30 μg/ml, 48 h) [%] | Growth inhibition, % ([2]; 100 μg/ml, 48 h) [%] | Growth inhibition, % ([3]; 10 μg/ml) [%] | Growth inhibition, % ([3]; 30 μg/ml) [%] | Growth inhibition, % ([3]; 100 μg/ml) [%] | Growth inhibition, % ([4]; 10 μg/ml) [%] | Growth inhibition, % ([4]; 30 μg/ml) [%] | Growth inhibition, % ([4]; 100 μg/ml) [%] | Growth inhibition, % ([5]; 10 μg/ml, 48 h) [%] | Growth inhibition, % ([5]; 30 μg/ml, 48 h) [%] | Growth inhibition, % ([5]; 100 μg/ml, 48 h) [%] | Growth inhibition, % ([6]; 10 μg/ml, 48 h) [%] | Growth inhibition, % ([6]; 30 μg/ml, 48 h) [%] | Growth inhibition, % ([6]; 100 μg/ml, 48 h) [%] | Growth inhibition, % ([7]; 10 μg/ml, 48 h) [%] | Growth inhibition, % ([7]; 30 μg/ml, 48 h) [%] | further results |
| --- | --- | --- | --- | --- | --- | --- | --- | --- | --- | --- | --- | --- | --- | --- | --- | --- | --- | --- | --- | --- | --- |
| C=C[C@]1(C)C=C2CCC3[C@@](C)(CCC[C@@]3(C)C(=O)O)C2CC1 (stereo partly drawn) [Compound 1, ent-pimmarane 8(14),15-diene-19 oic acid] | 13 | 72 | 94 | 20 | 68 | 80 | 00 | 66 | 76 | 00 | 75 | 88 | 02 | 70 | 94 | 05 | 78 | 97 | 00 | 14 | Growth inhibition, % ([7]; 100 μg/ml, 48 h): 41%; Growth inhibition, % ([8]; 10 μg/ml): 00%; Growth inhibition, % ([8]; 30 μg/ml): 00%; Growth inhibition, % ([8]; 100 μg/ml): 03%; inhibition of cell growth, span over the cell lines (human cancer cell lines): 41-97% |
| C=CC1(C)CC=C2C(=CCC3C(C)(C(=O)O)CCCC23C)C1 (stereo not drawn) [Compound 2, ent-pimmarane 7(8),9(11),15 triene-19 oic acid] | 09 | 71 | 97 | 18 | 70 | 91 | 12 | 67 | 96 | 22 | 85 | 92 | 00 | 70 | 95 | 00 | 83 | 94 | 00 | 8 | Growth inhibition, % ([7]; 100 μg/ml, 48 h): 38%; Growth inhibition, % ([8]; 10 μg/ml): 00%; Growth inhibition, % ([8]; 30 μg/ml): 00%; Growth inhibition, % ([8]; 100 μg/ml): 00%; inhibition of cell growth, span over the cell lines (human cancer cell lines): 38-97% |
| O=c1[nH]cc(F)c(=O)[nH]1 [Compound 5FU, reference compound] |  |  |  |  |  |  |  |  |  |  |  |  |  |  |  |  |  |  |  |  | Growth inhibition, % ([5]; 1 × 10^−4M, positive control): 43%; Growth inhibition, % ([7]; 1 × 10^−4M, positive control): 17% |
| CO[C@@]12[C@H](COC(N)=O)C3=C(C(=O)C(C)=C(N)C3=O)N1C[C@@H]1N[C@@H]12 [Mytomycin C, reference compound] |  |  |  |  |  |  |  |  |  |  |  |  |  |  |  |  |  |  |  |  | Growth inhibition, % ([2]; 1 × 10^−5M, positive control): 87%; Growth inhibition, % ([6]; 1 × 10^−5M, positive control): 78% |
| CC/C(=C(\c1ccccc1)c1ccc(OCCN(C)C)cc1)c1ccccc1 [Tamoxifen, reference compound] |  |  |  |  |  |  |  |  |  |  |  |  |  |  |  |  |  |  |  |  | inhibition at 100 µM ([1]; Homo sapiens, A549, 1 × 10^−4M, positive control, read-out: Growth inhibition, %): 98%; inhibition at 10 µM ([1]; Homo sapiens, A549, 1 × 10^−5M, positive control, read-out: Growth inhibition, %): 19%; inhibition at 100 µM [3, 9]: 100%; inhibition at 10 µM [3, 10]: 0%; inhibition at 100 µM [8, 9]: 20%; inhibition at 10 µM [8, 10]: 2% |
